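Results reflect a 48-hour exposure of cells in 96-well plates to compound at five concentrations. GI50 marks 50% less growth.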 The source made the active and inactive calls. Rule as the data show it: active = GI50 up to about 1.1 µM and inactive = higher.
Assays:
Assay in all cases: NCI-60 cell line screen, 48 h
[1] = system: DLD-1
[2] = system: DMS-114
[3] = system: DMS-273
[4] = system: HOP-18
[5] = system: KM-20L2
[6] = system: M19-MEL
[7] = system: RXF 631
[8] = system: SNB-78
[9] = system: XF498

Measured: GI50

NS(=O)(=O)c1ccc(NC(=O)Cc2nc3ccccc3s2)cc1
inactive: [1] 15.5 µM | [2] 15.1 µM | [3] 18.7 µM | [4] 17.8 µM | [5] 18.7 µM | [6] 14.6 µM | [7] 16.4 µM | [8] 19.5 µM | [9] 16.2 µM

CCOc1ccc(/N=C\c2ccc3cc(C)ccc3n2)cc1
inactive: [1] 48.8 µM | [2] 31.1 µM | [3] 43.2 µM | [4] > 100 µM | [5] 34.7 µM | [6] 52.4 µM | [7] > 100 µM | [8] > 100 µM | [9] > 100 µM

— ChEMBL document CHEMBL1201862, “PubChem BioAssay data set” (2004)
